Laboratory results reported in PMC4965013, “Open Source Drug Discovery with the Malaria Box Compound Collection for Neglected Diseases and Beyond” (PLoS Pathogens, 2016).
Values belong to the compound of their own block, whether it stands above or below them.

How the values were obtained:
[1] = tested on: P. falciparum 3D7 trophozoites; experiment: Metabolomic fingerprint profiling LC-MS; assay type: cell-based, Plasmodium falciparum; parameters: UDP-D-glucose / ADP-D-glucose: unit not given here; conditions: for Acetyllysine / N-acetyl-L-ornithine / N-carbamoyl-L-aspartate / NADPH / dAMP / dCMP / dTDP / dTMP / dTTP / dihydroorotate / orotate / DLH / DLS/SDL/SID / PD / PEE / PVNF / 3-phosphoglycerate / ADP-D-glucose / ATP / CDP / D-sedoheptulose-1/7-phosphate / FAD / GMP / NAD+ / NADP+ / Octoluse Bisphosphate / Pyroglutamic acid / UDP-D-glucose / UDP-D-glucuronate / UDP-N-acetyl-glucosamine / UDP / UMP / UTP / a-ketoglutarate / citrate/isocitrate / cytidine / dATP / dGMP/AMP / fumarate / glucose-1/6-phosphate / glycerate / guanine / guanosine / hypoxanthine / indole / inosine / nicotinate / ornithine / phosphoenolpyruvate / pyruvate / ribose-phosphate / sarcosine/alanine / sn-glycerol-3-phosphate / succinate/methylmalonic acid / uridine / xanthosine: S2 Table Metabolomics; for Acetyllysine: metabolite Acetyllysine; for N-acetyl-L-ornithine: metabolite N-acetyl-L-ornithine; for N-carbamoyl-L-aspartate: metabolite N-carbamoyl-L-aspartate; for NADPH: metabolite NADPH; for dAMP: metabolite dAMP; for dCMP: metabolite dCMP; for dTDP: metabolite dTDP; for dTMP: metabolite dTMP; for dTTP: metabolite dTTP; for dihydroorotate: metabolite dihydroorotate; for orotate: metabolite orotate; for DLH: peptide DLH; for DLS/SDL/SID: peptide DLS/SDL/SID; for PD: peptide PD; for PEE: peptide PEE; for PVNF: peptide PVNF; for 3-phosphoglycerate: metabolite 3-phosphoglycerate; for ADP-D-glucose: metabolite ADP-D-glucose; for ATP: metabolite ATP; for CDP: metabolite CDP; for CDP / D-sedoheptulose-1/7-phosphate / GMP / Octoluse Bisphosphate / UDP / UMP / UTP / citrate/isocitrate / dGMP/AMP / fumarate / glucose-1/6-phosphate / glycerate / guanine / guanosine / inosine / pyruvate / sarcosine/alanine / succinate/methylmalonic acid / uridine / xanthosine: change in metabolite level after compound treatment; for D-sedoheptulose-1/7-phosphate: metabolite D-sedoheptulose-1/7-phosphate; for FAD: metabolite FAD; for GMP: metabolite GMP; for NAD+: metabolite NAD+; for NADP+: metabolite NADP+; for Octoluse Bisphosphate: metabolite Octoluse Bisphosphate; for Pyroglutamic acid: metabolite Pyroglutamic acid; for UDP-D-glucose: metabolite UDP-D-glucose; for UDP-D-glucuronate: metabolite UDP-D-glucuronate; for UDP-N-acetyl-glucosamine: metabolite UDP-N-acetyl-glucosamine; for UDP: metabolite UDP; for UMP: metabolite UMP; for UTP: metabolite UTP; for a-ketoglutarate: metabolite a-ketoglutarate; for citrate/isocitrate: metabolite citrate/isocitrate; for cytidine: metabolite cytidine; for dATP: metabolite dATP; for dGMP/AMP: metabolite dGMP/AMP; for fumarate: metabolite fumarate; for glucose-1/6-phosphate: metabolite glucose-1/6-phosphate; for glycerate: metabolite glycerate; for guanine: metabolite guanine; for guanosine: metabolite guanosine; for hypoxanthine: metabolite hypoxanthine; for indole: metabolite indole; for inosine: metabolite inosine; for 2_3-Diphosphoglyceric acid / 4-phosphopantothenate / 6-phospho-D-gluconate / FMN / IMP / Pyrophosphate / Sedoheptoluse bisphosphate / cyclic-AMP / glutathione disulfide / lactate / myo-inositol: metabolite level change after treatment; for nicotinate: metabolite nicotinate; for ornithine: metabolite ornithine; for phosphoenolpyruvate: metabolite phosphoenolpyruvate; for pyruvate: metabolite pyruvate; for ribose-phosphate: metabolite ribose-phosphate; for sarcosine/alanine: metabolite sarcosine/alanine; for sn-glycerol-3-phosphate: metabolite sn-glycerol-3-phosphate; for succinate/methylmalonic acid: metabolite succinate/methylmalonic acid; for uridine: metabolite uridine; for xanthosine: metabolite xanthosine
P. falciparum = experiment: EC50 listed in S2 Table Metabolomics (used to set the concentration tested); assay type: cell-based; conditions: Plasmodium falciparum; EC50 used for Factor_XEC50 in metabolomics; read-out: EC50_nM

EC50 (P. falciparum): 345 nM
Structure (SMILES): Fc1ccc2[nH]c3c(NCCCN4CCOCC4)ncnc3c2c1 [MMV019871]
Acetyllysine [1]: -0.8876
N-acetyl-L-ornithine [1]: -0.1209
N-carbamoyl-L-aspartate [1]: 0.08503
NADPH [1]: 0.6093
dAMP [1]: 0.6696
dCMP [1]: -0.1368
dTDP [1]: 0.799
dTMP [1]: 0.8196
dTTP [1]: 0.3182
dihydroorotate [1]: 0.6163
orotate [1]: 0.06699
DLH [1]: -1.437
DLS/SDL/SID [1]: -0.7695
PD [1]: -0.933
PEE [1]: -0.4641
PVNF [1]: -1.358
3-phosphoglycerate [1]: -0.4045
ADP-D-glucose [1]: -0.2501
ATP [1]: -0.2422
CDP [1]: 0.8712
D-sedoheptulose-1/7-phosphate [1]: 0.6203
FAD [1]: -0.1788
GMP [1]: 0.008366
NAD+ [1]: -0.1288
NADP+ [1]: -0.2271
Octoluse Bisphosphate [1]: -0.5075
Pyroglutamic acid [1]: 0.06535
UDP-D-glucose [1]: -0.1274
UDP-D-glucuronate [1]: -0.1958
UDP-N-acetyl-glucosamine [1]: -0.09954
UDP [1]: 0.8844
UMP [1]: -0.5999
UTP [1]: -0.2069
a-ketoglutarate [1]: -0.1645
citrate/isocitrate [1]: -0.2521
cytidine [1]: -0.343
dATP [1]: -0.2053
dGMP/AMP [1]: 0.4546
fumarate [1]: -0.6533
glucose-1/6-phosphate [1]: -0.1277
glycerate [1]: -0.2409
guanine [1]: 0.2236
guanosine [1]: 0.1132
hypoxanthine [1]: 0.02159
indole [1]: -0.3008
inosine [1]: 0.02443
2_3-Diphosphoglyceric acid [1]: -0.241
4-phosphopantothenate [1]: -0.03538
6-phospho-D-gluconate [1]: -0.1618
FMN [1]: 0.07605
IMP [1]: 0.1512
Pyrophosphate [1]: -0.1841
Sedoheptoluse bisphosphate [1]: -0.3231
cyclic-AMP [1]: -0.2059
glutathione disulfide [1]: -0.2521
lactate [1]: 0.01945
myo-inositol [1]: 0.08413
nicotinate [1]: 0.1601
ornithine [1]: 0.04638
phosphoenolpyruvate [1]: -0.3024
pyruvate [1]: 0.2194
ribose-phosphate [1]: -0.9686
sarcosine/alanine [1]: -0.2747
sn-glycerol-3-phosphate [1]: -0.2288
succinate/methylmalonic acid [1]: -0.1938
uridine [1]: 0.09395
xanthosine [1]: -0.4756

EC50 (P. falciparum): 36.7 nM
Structure (SMILES): COc1ccc(NC(=O)C2c3ccccc3C(=O)N(CC(C)C)C2c2cccs2)cc1 (stereo not drawn) [MMV000662]
Acetyllysine [1]: -4.572
N-acetyl-L-ornithine [1]: -3.381
N-carbamoyl-L-aspartate [1]: -2.466
NADPH [1]: 2.406
dAMP [1]: 2.2996
dCMP [1]: 1.058
dTDP [1]: 1.444
dTMP [1]: 3.186
dTTP [1]: 1.443
dihydroorotate [1]: -3.591
orotate [1]: -0.05867
DLH [1]: -6.2862
DLS/SDL/SID [1]: -4.745
PD [1]: -2.987
PEE [1]: -3.507
PVNF [1]: -6.642
3-phosphoglycerate [1]: 0.247
ADP-D-glucose [1]: -0.1909
ATP [1]: -1.375
CDP [1]: -0.7124
D-sedoheptulose-1/7-phosphate [1]: -1.119
FAD [1]: -1.511
GMP [1]: -1.853
NAD+ [1]: -0.4043
NADP+ [1]: -0.01609
Octoluse Bisphosphate [1]: -2.194
Pyroglutamic acid [1]: 0.3441
UDP-D-glucose [1]: -0.06213
UDP-D-glucuronate [1]: -0.01201
UDP-N-acetyl-glucosamine [1]: 0.08846
UDP [1]: -1.277
UMP [1]: -0.622
UTP [1]: -1.315
a-ketoglutarate [1]: 0.4405
citrate/isocitrate [1]: 0.05797
cytidine [1]: 0.7559
dATP [1]: 0.06895
dGMP/AMP [1]: -0.6193
fumarate [1]: -0.1354
glucose-1/6-phosphate [1]: -1.428
glycerate [1]: -0.4765
guanine [1]: 0.7318
guanosine [1]: 1.459
hypoxanthine [1]: 0.3686
indole [1]: 0.3717
inosine [1]: 0.5573
2_3-Diphosphoglyceric acid [1]: -1.11
4-phosphopantothenate [1]: -0.6744
6-phospho-D-gluconate [1]: -0.3651
FMN [1]: 0.04988
IMP [1]: -0.0547
Pyrophosphate [1]: -1.578
Sedoheptoluse bisphosphate [1]: -1.096
cyclic-AMP [1]: -0.7789
glutathione disulfide [1]: -0.5026
lactate [1]: -0.6017
myo-inositol [1]: -0.9859
nicotinate [1]: 1.185
ornithine [1]: 0.01334
phosphoenolpyruvate [1]: 0.5172
pyruvate [1]: -1.672
ribose-phosphate [1]: -0.9727
sarcosine/alanine [1]: -1.6779
sn-glycerol-3-phosphate [1]: 0.8186
succinate/methylmalonic acid [1]: 0.3034
uridine [1]: 1.71
xanthosine [1]: -1.3795

EC50 (P. falciparum): 237 nM
Structure (SMILES): CCCCCC(=O)N1c2ccccc2N=C2CC(c3ccc(OC)c(OC)c3)CC(O)=C2C1c1ccc(C(F)(F)F)cc1 (stereo not drawn) [MMV085583]
Acetyllysine [1]: -3.233
N-acetyl-L-ornithine [1]: -2.906
N-carbamoyl-L-aspartate [1]: -0.5597
NADPH [1]: 1.284
dAMP [1]: 0.2596
dCMP [1]: -0.4552
dTDP [1]: -0.3582
dTMP [1]: -0.9265
dTTP [1]: 0.1067
dihydroorotate [1]: -0.6697
orotate [1]: -1.058
DLH [1]: -2.5
DLS/SDL/SID [1]: -2.559
PD [1]: -2.735
PEE [1]: -2.9857
PVNF [1]: -3.329
3-phosphoglycerate [1]: 0.3606
ADP-D-glucose [1]: -0.0158
ATP [1]: -0.07202
CDP [1]: -0.3911
D-sedoheptulose-1/7-phosphate [1]: -0.5433
FAD [1]: -0.3185
GMP [1]: -0.4734
NAD+ [1]: -0.2717
NADP+ [1]: 0.1968
Octoluse Bisphosphate [1]: -0.2833
Pyroglutamic acid [1]: -0.1555
UDP-D-glucose [1]: -0.1587
UDP-D-glucuronate [1]: -0.1055
UDP-N-acetyl-glucosamine [1]: -0.2414
UDP [1]: -0.8399
UMP [1]: -0.6631
UTP [1]: -0.1073
a-ketoglutarate [1]: -0.8202
citrate/isocitrate [1]: -0.2512
cytidine [1]: -0.09635
dATP [1]: 0.2253
dGMP/AMP [1]: -0.1442
fumarate [1]: -0.4715
glucose-1/6-phosphate [1]: -0.3133
glycerate [1]: -0.7263
guanine [1]: -0.4303
guanosine [1]: -0.4531
hypoxanthine [1]: -0.4709
indole [1]: -0.4645
inosine [1]: -0.4523
2_3-Diphosphoglyceric acid [1]: 0.1524
4-phosphopantothenate [1]: -0.4091
6-phospho-D-gluconate [1]: -0.01182
FMN [1]: -0.2086
IMP [1]: -0.3529
Pyrophosphate [1]: 0.1499
Sedoheptoluse bisphosphate [1]: 0.0221
cyclic-AMP [1]: -0.3292
glutathione disulfide [1]: -0.6201
lactate [1]: -0.8724
myo-inositol [1]: -1.425
nicotinate [1]: 0.07742
ornithine [1]: 0.02649
phosphoenolpyruvate [1]: 0.334
pyruvate [1]: -0.3941
ribose-phosphate [1]: -0.07903
sarcosine/alanine [1]: -0.9167
sn-glycerol-3-phosphate [1]: 0.1681
succinate/methylmalonic acid [1]: -0.405
uridine [1]: -0.7297
xanthosine [1]: 0.125
